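Where inhibition never reached the appropriate level, the endpoint shown equals the highest concentration tested. Otherwise, values were interpolated linearly from a five-concentration, 48-hour dose response in 96-well plates. GI50 marks 50% less growth. Definition used: TGI = concentration required for complete inhibition of growth.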 *1 amine or outer side, *2 acyl side, *3 side chain or, on linkers, in order; H or OH if unused. Where a SMILES comes first, the peptide text is derived from it. Bridges are numbered along the chain shown (N, C = ends). Roman numbers before positions name the chains, in order. X23 = CCCCCCCCCCCCCCC(=O)NC(CCCCN[*:2])C(=O)CN1CCCC1C(=O)[*:1]
Experiments:
Assay in all cases: NCI tumour cell line growth inhibition, 48 h
[1] = tested on: A498 renal
[2] = tested on: A549 NSCLC
[3] = tested on: BT-549 breast
[4] = tested on: CAKI-1 renal
[5] = tested on: CCRF-CEM leukemia
[6] = tested on: COLO 205 colon
[7] = tested on: DU-145 prostate
[8] = tested on: EKVX NSCLC
[9] = tested on: HCC-2998 colon
[10] = tested on: HCT-116 colon
[11] = tested on: HL-60(TB) leukemia
[12] = tested on: HOP-62 NSCLC
[13] = tested on: HOP-92 NSCLC
[14] = tested on: HS 578T breast
[15] = tested on: HT29 colon
[16] = tested on: IGROV1 ovarian
[17] = tested on: K-562 leukemia
[18] = tested on: KM12 colon
[19] = tested on: M14 melanoma
[20] = tested on: MCF7 breast
[21] = tested on: MDA-MB-231 breast
[22] = tested on: MDA-MB-435
[23] = tested on: MOLT-4 leukemia
[24] = tested on: NCI-H226 lung
[25] = tested on: NCI-H23 lung
[26] = tested on: NCI-H460 lung
[27] = tested on: NCI-H522 lung
[28] = tested on: NCI/ADR-RES ovarian
[29] = tested on: OVCAR-3 ovarian
[30] = tested on: OVCAR-4 ovarian
[31] = tested on: OVCAR-5 ovarian
[32] = tested on: OVCAR-8 ovarian
[33] = tested on: RPMI-8226 leukemia
[34] = tested on: RXF 393 renal
[35] = tested on: SF-268 CNS
[36] = tested on: SF-295 CNS
[37] = tested on: SF-539 CNS
[38] = tested on: SK-MEL-2 melanoma
[39] = tested on: SK-MEL-28 melanoma
[40] = tested on: SK-MEL-5 melanoma
[41] = tested on: SK-OV-3 ovarian
[42] = tested on: SNB-19 CNS
[43] = tested on: SNB-75 CNS
[44] = tested on: SW-620 colon
[45] = tested on: T-47D breast
[46] = tested on: TK-10 renal
[47] = tested on: UACC-257 melanoma
[48] = tested on: UO-31 renal

CCCCCCCCCCCCCCC(=O)NC(CCCCNC(=O)C1CCCN1C(=O)C(CCCCN)NC(=O)C(CCCCN)NC(=O)C(CCCCN)NC(=O)C(CCCNC(=N)N)NC(=O)C(CCCCN)NC(=O)C(N)C(C)C)C(=O)CN1CCCC1C(=O)NCC(=O)NC(Cc1ccccc1)C(=O)N1CCCC1C(=O)NC(CO)C(=O)NC(Cc1ccc(O)cc1)C(=O)NC(CCCCN)C(=O)NC(CC(C)C)C(=O)NC(CCCNC(=N)N)C(=O)N1CCCC1C(=O)NCC(N)=O (stereo unspecified) (I: GFPSYKLRPG-NH2 / II: H-VKRKKKP; linker I:N-II:C via X23; configuration not given here)
GI50 [1]: 40.5 µM | TGI [1]: > 100 µM | GI50 [2]: 19.2 µM | TGI [2]: 43.1 µM | GI50 [3]: 23.4 µM | TGI [3]: 54.7 µM | GI50 [4]: 14 µM | TGI [4]: 36.9 µM | GI50 [5]: 16.5 µM | TGI [5]: 35.1 µM | GI50 [6]: 2.66 µM | TGI [6]: 15.6 µM | GI50 [7]: 24.6 µM | TGI [7]: 64.2 µM | GI50 [8]: 20.3 µM | TGI [8]: 58.7 µM | GI50 [9]: 2.34 µM | TGI [9]: 8.59 µM | GI50 [10]: 14.3 µM | TGI [10]: 33.1 µM | GI50 [11]: 22.5 µM | TGI [11]: 94.8 µM | GI50 [12]: 27.8 µM | TGI [12]: 69.5 µM | GI50 [13]: 27 µM | TGI [13]: 65.1 µM | GI50 [14]: 41.1 µM | TGI [14]: > 100 µM | GI50 [15]: 24.7 µM | TGI [15]: 77.8 µM | GI50 [16]: 14.8 µM | TGI [16]: 52.4 µM | GI50 [17]: 9.27 µM | TGI [17]: 44.4 µM | GI50 [18]: 1.89 µM | TGI [18]: 3.85 µM | GI50 [19]: 22.8 µM | TGI [19]: 55.6 µM | GI50 [20]: 15.4 µM | TGI [20]: 45.7 µM | GI50 [21]: 20.9 µM | TGI [21]: 43.7 µM | GI50 [22]: 3.15 µM | TGI [22]: 41.6 µM | GI50 [23]: 18.7 µM | TGI [23]: 44 µM | GI50 [24]: 23.7 µM | TGI [24]: 49.7 µM | GI50 [25]: 23.8 µM | TGI [25]: 92.8 µM | GI50 [26]: 14.6 µM | TGI [26]: 49.9 µM | GI50 [27]: 21.8 µM | TGI [27]: 66.3 µM | GI50 [28]: 19.6 µM | TGI [28]: 52.9 µM | GI50 [29]: 18.7 µM | TGI [29]: 94.6 µM | GI50 [30]: 28.7 µM | TGI [30]: 97.1 µM | GI50 [31]: 29.7 µM | TGI [31]: 74.9 µM | GI50 [32]: 26.3 µM | TGI [32]: 85.8 µM | GI50 [33]: 11 µM | TGI [33]: 30 µM | GI50 [34]: 20.7 µM | TGI [34]: 51.1 µM | GI50 [35]: 14.6 µM | TGI [35]: 40.8 µM | GI50 [36]: 18.1 µM | TGI [36]: 59.3 µM | GI50 [37]: 27.7 µM | TGI [37]: 75.1 µM | GI50 [38]: 51.7 µM | TGI [38]: > 100 µM | GI50 [39]: 11.3 µM | TGI [39]: 98.6 µM | GI50 [40]: 8.01 µM | TGI [40]: > 100 µM | GI50 [41]: 15.9 µM | TGI [41]: 44.3 µM | GI50 [42]: 31.4 µM | TGI [42]: 76.6 µM | GI50 [43]: 31.5 µM | TGI [43]: 76.7 µM | GI50 [44]: 30 µM | TGI [44]: > 100 µM | GI50 [45]: 3.17 µM | TGI [45]: 13.9 µM | GI50 [46]: 0.704 µM | TGI [46]: 13.7 µM | GI50 [47]: 14 µM | TGI [47]: 53.8 µM | GI50 [48]: 24.7 µM | TGI [48]: 77.1 µM

Source: PubChem BioAssay (NCI)
